In this experiment the target is USP1 (construct USP1 (I-785, GG670, 671AA)/UAF1 (I-677)-Flag) (Homo sapiens (Human), UniProt O94782, G670A/G671A). Description: Ubiquitin-Rhodamine 110 assay for USP1 activity. In kind it is biochemical. The settings on record: USP1/UAF1 25 pM, Ub-Rh110 25 nM, 30 min preincubation. In a few lines:
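Ub-Rh110 (25 nM, ≪Km) cleavage read at ex 485/em 535 in Tris pH 8.0, CaCl2, GSH, Prionex, Triton X-100. The screen used 10 µM compound, 100 pM USP1/UAF1 and 45 min at RT.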

The IC50 is the point on the concentration scale where inhibition reaches its midpoint.

Sequence of USP1 (construct USP1 (I-785, GG670, 671AA)/UAF1 (I-677)-Flag) (O94782 whole entry G670A/G671A): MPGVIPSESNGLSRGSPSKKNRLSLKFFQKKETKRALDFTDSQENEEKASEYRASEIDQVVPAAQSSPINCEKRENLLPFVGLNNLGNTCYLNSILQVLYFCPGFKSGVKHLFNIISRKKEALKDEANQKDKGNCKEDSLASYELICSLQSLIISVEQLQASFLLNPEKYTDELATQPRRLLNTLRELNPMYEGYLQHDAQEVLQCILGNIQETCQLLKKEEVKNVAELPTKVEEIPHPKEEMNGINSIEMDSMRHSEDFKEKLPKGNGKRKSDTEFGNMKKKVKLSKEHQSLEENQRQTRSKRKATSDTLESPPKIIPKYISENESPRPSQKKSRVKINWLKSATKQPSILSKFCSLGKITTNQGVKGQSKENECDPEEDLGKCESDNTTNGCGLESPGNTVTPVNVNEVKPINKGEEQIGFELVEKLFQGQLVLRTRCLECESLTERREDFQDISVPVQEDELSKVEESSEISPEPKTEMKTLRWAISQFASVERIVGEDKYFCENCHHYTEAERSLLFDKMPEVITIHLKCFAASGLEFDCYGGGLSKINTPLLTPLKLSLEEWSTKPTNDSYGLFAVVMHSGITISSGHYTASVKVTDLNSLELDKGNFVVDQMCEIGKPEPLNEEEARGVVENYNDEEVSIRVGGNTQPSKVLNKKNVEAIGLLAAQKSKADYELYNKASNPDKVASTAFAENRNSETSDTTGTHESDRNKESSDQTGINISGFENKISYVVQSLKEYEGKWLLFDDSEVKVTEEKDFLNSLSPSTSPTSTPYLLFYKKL
Sequence of USP1 (construct USP1 (I-785, GG670, 671AA)/UAF1 (I-677)-Flag) (Q8TAF3 whole entry partner): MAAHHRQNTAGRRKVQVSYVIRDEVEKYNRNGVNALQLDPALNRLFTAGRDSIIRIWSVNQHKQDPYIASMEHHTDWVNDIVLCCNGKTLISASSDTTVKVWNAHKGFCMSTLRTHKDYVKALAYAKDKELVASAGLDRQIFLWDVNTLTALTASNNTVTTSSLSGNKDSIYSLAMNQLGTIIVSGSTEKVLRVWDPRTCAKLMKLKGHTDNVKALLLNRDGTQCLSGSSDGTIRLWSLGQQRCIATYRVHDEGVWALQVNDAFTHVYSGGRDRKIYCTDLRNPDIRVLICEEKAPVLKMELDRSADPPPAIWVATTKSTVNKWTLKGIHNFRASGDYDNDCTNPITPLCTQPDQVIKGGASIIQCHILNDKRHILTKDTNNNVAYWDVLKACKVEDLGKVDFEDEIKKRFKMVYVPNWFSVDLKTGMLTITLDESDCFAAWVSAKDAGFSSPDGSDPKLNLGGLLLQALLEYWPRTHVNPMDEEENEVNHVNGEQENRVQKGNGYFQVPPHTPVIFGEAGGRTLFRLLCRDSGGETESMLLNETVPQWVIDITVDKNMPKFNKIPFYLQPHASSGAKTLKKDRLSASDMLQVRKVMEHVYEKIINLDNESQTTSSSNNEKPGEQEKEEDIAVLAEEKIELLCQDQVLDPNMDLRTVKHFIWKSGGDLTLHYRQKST

In turn, `CC(C)c1ccccc1-c1ncc2[nH]c(=O)n(Cc3ccc(C(=O)N4CCCC45COC5)cc3)c2n1` [Compound I-411, 9-(4-(2-oxa-5-azaspiro[3.4]octane-5-carbonyl)benzyl)-2-(2-isopropylphenyl)-7,9-dihydro-8H-purin-8-one] gave an IC50 below 50 nM.
The figure for `CC(C)c1ccccc1-c1ncc2c(n1)n(Cc1ccc(-c3cnn4c3COCC4)cc1)c(=O)n2C` [Compound I-265, 9-(4-(6,7-dihydro-4H-pyrazolo[5,1-c][1,4]oxazin-3-yl)benzyl)-2-(2-isopropylphenyl)-7-methyl-7,9-dihydro-8H-purin-8-one] is 200 to 2000 nM; for `Cc1nc(F)ccc1-c1ncc2c(n1)n(Cc1ccc(-c3nc(C(F)(F)F)cn3C)cc1)c(=O)n2C` [Compound I-66, 2-(6-fluoro-2-methylpyridin-3-yl)-7-methyl-9-(4-(1-methyl-4-(trifluoromethyl)-1H-imidazol-2-yl)benzyl)-7,9-dihydro-8H-purin-8-one] it is 200 to 2000 nM; for `CCN(CC)c1ncccc1-c1ncc2[nH]c(=O)n(Cc3ccc(-c4nc(C(F)(F)F)cn4C)cc3)c2n1` [Compound I-324, 2-(2-(diethylamino)pyridin-3-yl)-9-(4-(1-methyl-4-(trifluoromethyl)-1H-imidazol-2-yl)benzyl)-7,9-dihydro-8H-purin-8-one] it is below 50 nM.
In turn, `CC(C)c1ccccc1-c1ncc2[nH]c(=O)n(Cc3ccc(C(=O)NCc4cnn(C)c4)cc3)c2n1` [Compound I-361, 4-((2-(2-isopropylphenyl)-8-oxo-7,8-dihydro-9H-purin-9-yl)methyl)-N-((1-methyl-1H-pyrazol-4-yl)methyl)benzamide] had an IC50 of 200 to 2000 nM.
`CCN(C)C(=O)c1ccc(Cn2c(=O)[nH]c3cnc(-c4ccccc4C(C)C)nc32)cc1` [Compound I-373, N-ethyl-4-((2-(2-isopropylphenyl)-8-oxo-7,8-dihydro-9H-purin-9-yl)methyl)-N-methylbenzamide] came in with an IC50 below 50 nM.
For `CC(C)c1ccccc1-c1ncc2c(n1)n(Cc1ccc(-c3ncc[nH]3)cc1)c(=O)n2C` [Compound I-529, 9-(4-(1H-Imidazol-2-yl)benzyl)-2-(2-isopropylphenyl)-7-methyl-7,9-dihydro-8H-purin-8-one] the value was 50 to 200 nM.
Take `Cc1nc(N2CCC(Cn3c(=O)n(C)c4cnc(-c5ccccc5C(C)C)nc43)CC2)c(C)s1` [Compound I-494, 9-((1-(2,5-dimethylthiazol-4-yl)piperidin-4-yl)methyl)-2-(2-isopropylphenyl)-7-methyl-7,9-dihydro-8H-purin-8-one]: the IC50 is 50 to 200 nM.
In turn, `CC(C)c1ccccc1-c1ncc2c(n1)n(Cc1ccc(-c3nc(C(F)(F)F)n(C)n3)cc1)c(=O)n2C` [Compound I-280, 2-(2-isopropylphenyl)-7-methyl-9-(4-(1-methyl-5-(trifluoromethyl)-1H-1,2,4-triazol-3-yl)benzyl)-7,9-dihydro-8H-purin-8-one] displayed an IC50 below 50 nM.
Turning to `CC(C)c1ccccc1-c1ncc2[nH]c(=O)n(Cc3ccc(-n4cc(CN(C)C)nn4)cc3)c2n1` [Compound I-339, 9-(4-(4-((dimethylamino)methyl)-1H-1,2,3-triazol-1-yl)benzyl)-2-(2-isopropylphenyl)-7,9-dihydro-8H-purin-8-one], the concentration for half-maximal inhibition (IC50) was above 2000 nM.
The compound `CC(C)c1ccccc1-c1ncc2c(n1)n(Cc1ccc(-c3cccn4ccnc34)cc1)c(=O)n2C` [Compound I-269, 9-(4-(imidazo[1,2-a]pyridin-8-yl)benzyl)-2-(2-isopropylphenyl)-7-methyl-7,9-dihydro-8H-purin-8-one] returned an IC50 below 50 nM.
In turn, `CC(C)c1ccccc1-c1ncc2[nH]c(=O)n(Cc3ccc(-n4cc(C(C)(C)N)nn4)cc3)c2n1` [Compound I-338, 9-(4-(4-(2-aminopropan-2-yl)-1H-1,2,3-triazol-1-yl)benzyl)-2-(2-isopropylphenyl)-7,9-dihydro-8H-purin-8-one] showed an IC50 above 2000 nM.
`CC(C)c1ccccc1-c1ncc2[nH]c(=O)n(Cc3ccc(-n4c(=O)ccn4C)cc3)c2n1` [Compound I-205, 2-(2-isopropylphenyl)-9-(4-(2-methyl-5-oxo-2,5-dihydro-1H-pyrazol-1-yl)benzyl)-7,9-dihydro-8H-purin-8-one] came in with an IC50 of 50 to 200 nM.
The figure for `CC(C)c1ncccc1-c1ncc2c(n1)n(Cc1ccc(-c3nc(C(F)(F)F)cn3C)cc1F)c(=O)n2C` [Compound I-127, 9-(2-fluoro-4-(1-methyl-4-(trifluoromethyl)-1H-imidazol-2-yl)benzyl)-2-(2-isopropylpyridin-3-yl)-7-methyl-7,9-dihydro-8H-purin-8-one] is 50 to 200 nM; for `CC(C)c1ccccc1-c1ncc2[nH]c(=O)n(Cc3ccc(-c4cn[nH]c4)cc3)c2n1` [Compound I-539, 9-(4-(1H-Pyrazol-4-yl)benzyl)-2-(2-isopropylphenyl)-7,9-dihydro-8H-purin-8-one] it is 200 to 2000 nM; for `Cn1cc(C(F)(F)F)nc1-c1ccc(Cn2c(=O)[nH]c3cnc(-c4cccnc4OCC4CC4)nc32)cc1` [Compound I-414, 2-(2-(cyclopropylmethoxy)pyridin-3-yl)-9-(4-(1-methyl-4-(trifluoromethyl)-1H-imidazol-2-yl)benzyl)-7,9-dihydro-8H-purin-8-one] it is below 50 nM.
In turn, `[2H]C([2H])([2H])n1c(=O)n(Cc2ccc(-c3nc(C(F)(F)F)cn3C)cc2)c2nc(-c3cccnc3C(C)C)ncc21` [Compound I-129, 2-(2-isopropylpyridin-3-yl)-7-(methyl-d3)-9-(4-(1-methyl-4-(trifluoromethyl)-1H-imidazol-2-yl)benzyl)-7,9-dihydro-8H-purin-8-one] returned an IC50 below 50 nM.
The compound `CCC(COC)Oc1ncccc1-c1ncc2[nH]c(=O)n(Cc3ccc(-c4nc(C(F)(F)F)cn4C)cc3)c2n1` (stereo not drawn) [Compound I-428, 2-(2-((1-methoxybutan-2-yl)oxy)pyridin-3-yl)-9-(4-(1-methyl-4-(trifluoromethyl)-1H-imidazol-2-yl)benzyl)-7,9-dihydro-8H-purin-8-one] had an IC50 of 50 to 200 nM.
Take `CC(C)c1ccccc1-c1ncc2c(n1)n(Cc1ccc(N(C)C(=O)NC3CC3)cc1)c(=O)n2C` [Compound I-486, 3-cyclopropyl-1-(4-((2-(2-isopropylphenyl)-7-methyl-8-oxo-7,8-dihydro-9H-purin-9-yl)methyl)phenyl)-1-methylurea]: the IC50 lay in the range of 200 to 2000 nM.
Regarding `CC(C)c1ccccc1-c1ncc2[nH]c(=O)n(Cc3ccc(-c4cnnn4C)cc3)c2n1` [Compound I-298, 2-(2-isopropylphenyl)-9-(4-(1-methyl-1H-1,2,3-triazol-5-yl)benzyl)-7,9-dihydro-8H-purin-8-one], the IC50 is above 2000 nM.
For `CC(C)Oc1cc(F)ccc1-c1ncc2[nH]c(=O)n(Cc3ccc(-n4nccn4)cc3)c2n1` [Compound I-15, 9-(4-(2H-1,2,3-triazol-2-yl)benzyl)-2-(4-fluoro-2-isopropoxyphenyl)-7,9-dihydro-8H-purin-8-one] the value was above 2000 nM.
`Cc1cn(-c2ccc(Cn3c(=O)[nH]c4cnc(-c5ccccc5C(C)C)nc43)cc2)nn1` [Compound I-175, 2-(2-isopropylphenyl)-9-(4-(4-methyl-1H-1,2,3-triazol-1-yl)benzyl)-7,9-dihydro-8H-purin-8-one] returned an IC50 below 50 nM.
The figure for `CC(C)c1ccccc1-c1ncc2c(n1)n(Cc1ccc(NS(=O)(=O)c3nccn3C)cc1)c(=O)n2C` [Compound I-454, N-(4-((2-(2-isopropylphenyl)-7-methyl-8-oxo-7,8-dihydro-9H-purin-9-yl)methyl)phenyl)-1-methyl-1H-imidazole-2-sulfonamide] is 200 to 2000 nM.
Take `COCCn1cc(-c2ccc(Cn3c(=O)[nH]c4cnc(-c5ccccc5C(C)C)nc43)cc2)cn1` [Compound I-518, 2-(2-Isopropylphenyl)-9-(4-(1-(2-methoxyethyl)-1H-pyrazol-4-yl)benzyl)-7,9-dihydro-8H-purin-8-one]: the IC50 was in the range of 50 to 200 nM.
In turn, `CC(C)c1ccccc1-c1ncc2[nH]c(=O)n(Cc3ccc(C(=O)N(C)C4CCOC4)cc3)c2n1` (stereo not drawn) [Compound I-402, 4-((2-(2-isopropylphenyl)-8-oxo-7,8-dihydro-9H-purin-9-yl)methyl)-N-methyl-N-(tetrahydrofuran-3-yl)benzamide] yielded a concentration for half-maximal inhibition (IC50) of 200 to 2000 nM.
The figure for `Cn1cc(C(F)(F)F)nc1-c1ccc(Cn2c(=O)n(C)c3cnc(-c4cccnc4OC(F)F)nc32)cc1` [Compound I-48, 2-(2-(difluoromethoxy)pyridin-3-yl)-7-methyl-9-(4-(1-methyl-4-(trifluoromethyl)-1H-imidazol-2-yl)benzyl)-7,9-dihydro-8H-purin-8-one] is below 50 nM; for `CCC1CCCCN1C(=O)c1ccc(Cn2c(=O)[nH]c3cnc(-c4ccccc4C(C)C)nc32)cc1` (stereo not drawn) [Compound I-397, 9-(4-(2-ethylpiperidine-1-carbonyl)benzyl)-2-(2-isopropylphenyl)-7,9-dihydro-8H-purin-8-one] it is below 50 nM.
The compound `CN(C)c1ccccc1-c1ncc2[nH]c(=O)n(Cc3ccc(-c4nc(C(F)(F)F)cn4C)cc3)c2n1` [Compound I-90, 2-(2-(dimethylamino)phenyl)-9-(4-(1-methyl-4-(trifluoromethyl)-1H-imidazol-2-yl)benzyl)-7,9-dihydro-8H-purin-8-one] had an IC50 below 50 nM.
For `CC(C)c1ccccc1-c1ncc2[nH]c(=O)n(Cc3ccc(-c4nc(C(F)(F)F)cn4CCO)cc3)c2n1` [Compound I-506, 9-(4-(1-(2-hydroxyethyl)-4-(trifluoromethyl)-1H-imidazol-2-yl)benzyl)-2-(2-isopropylphenyl)-7,9-dihydro-8H-purin-8-one] the value was below 50 nM; for `CC(C)c1ccccc1-c1ncc2c(n1)n(Cc1ccc(-c3nc(C(F)(F)F)cn3C)cc1)c(=O)n2C` [Compound I-63, 2-(2-isopropylphenyl)-7-methyl-9-(4-(1-methyl-4-(trifluoromethyl)-1H-imidazol-2-yl)benzyl)-7,9-dihydro-8H-purin-8-one], below 50 nM.
